The text below walks through data of US10881677B2, “Composition for modulating IRAK1” (Agency for Science, Technology and Research, priority 2015, dated 2021).

The pEC50 is −log10 of the EC50, conventionally taken in molar units.

For assay [1], the system named is BT549, MB436, MB468, MDA231 and MDA231-LM2 cells. Briefly: Mammosphere formation assay. The note with it: for mammosphere growth: 5 μM IRAK-inh; for mammosphere forming capacity after Paclitaxel pretreatment: MDA231 cells, 10 nM Paclitaxel 4 days, remaining viable cells. The assay is classed as cell-based. On the procedure: Active growing cells were treated with 0.05% trypsin for 10 minutes then passed through […] cell strainer to achieve single cell suspension. Cells were plated (MDA231: 1×10^4; MB436: 3×10^4; MB468: 4×10^4 cells/well, BT549: 3×10^4, MDA231-LM2: 3×10^4) seeded in 6-well ultra-low attachment plates (Corning, Corning, N.Y., cat: CLS3471) in Mammocult medium (Stem cell Technologies, Vancouver, BC, Canada), supplemented with fresh hydrocortisone (0.51 μg/ml) and heparin (1:500). Tumorspheres were cultured for 7 days prior to being counted and photographed. Imaging and quantification were done using GelCount™ apparatus and associated software (Oxford Optronix, Abingdon, UK). For serial passages of tumorsphere formation assay, the spheres were collected by gentle centrifugation, dissociated to single cells for passaging tumorspheres every 14 days and counted. Tumorspheres were photographed and quantified 7-12 days later using a GelCount Colony Counter after staining with INT.

The subject of assay [2] is IL-6, IL-8 and CXCL1 secretion. Nature of the assay: ELISA of cytokine secretion. The assay is classed as cell-based. As to the method: IL-6, IL-8 and CXCL1 levels were assessed using ELISA assay kit (Boster Bio, Pleasanton, Calif.). Supernates of the mammosphere formation assay were collected after 10 days in culture. 1:50 dilution was performed on the supernates before quantifying the amount of cytokines according to the manufacturer's protocol. For cytokine antibody array, supernates collected from the NS or shIRAK1 MB436 mammospheres after 10 days in culture were used directly without further dilution. Semi-quantitative detection of 120 human cytokines and chemokines in the supernates were performed using the RayBio® C-series Human Cytokine Antibody Array C1000 (RayBiotech, Inc., Norcross, GS, Cat no.: #AAH-CYT-1000-2) as per manufacturer's instructions. Detection of dots was performed with the ChemiDoc™ MP Imaging Systems (Bio-Rad, Hercules, Calif.) and the intensity of dots were quantified by densitometric analysis using the ImageJ software. The raw numerical densitometry data is extracted and subjected to background subtraction before normalizing the signal for each cytokines against the Positive Control signals in each cytokine array.

The subject of assay [3] is p38-MCL-1 signaling in SUM159-PR cells. Briefly: Western blot of p-p38, MCL-1 and cleaved PARP. The format is cell-based. The note with it: inhibitor with Paclitaxel. As to the method:
(§1) Western Blotting was performed as described previously (8). IRAK1 (Cat no: #4359), IRAK4 (Cat no.: 4363), cleaved PARP (Cat no.: #9541), p38 MAPK (Cat no.: #9212), phospho-p38 MAPK (T180/Y182) (Cat no.: #9211), phospho-NF-KappaB p65 (S536) (Cat no. #3031) were purchased from Cell Signaling (Danvers, Mass.). Phospho-IRAK1 (T209) antibody was purchased from Assay Biotech (Sunnyvale, Calif., Cat no.: A1074) and phospho-IRAK1 (S376) antibody from Genetex (Irvine, Calif., Cat no.: GTX50994). MCL-1 antibody was purchased from Santa Cruz Biotechnology (Santa Cruz, Calif., Cat no.: sc-819). Actin was purchased from Sigma-Aldrich (St Louis, Mo., Cat no.: A5441). Detection of bands was performed with the ChemiDoc™ MP Imaging Systems (Bio-Rad, Hercules, Calif.) and bands were subjected to further densitometric analysis with Image Lab software (Version 4.1, Bio-rad, Hercules, Calif.).
On the technique in general: In western blotting, separated proteins are transferred to a membrane and probed.

The subject of assay [4] is MDA231-LM2 cells. Nature of the assay: Mammary fat pad MDA231-LM2 xenograft, lung metastasis by bioluminescence imaging. The assay is classed as in vivo, NOD/SCID mice. The note with it: for lung metastasis: IRAK-inh 4 mg/kg, qd, ip, 14 days, started 7 days before primary tumor removal.
The target of assay [5] is T1, p-IRAK1 (T209) (Homo sapiens, UniProt P51617).
T1 construct: The whole cell lysate were extracted with the NE-PER kit (Pierce Biotechnology) and subjected to immunoprecipitation using 2 μg total-IRAK1 antibody; endogenous in cells; host or cells: TNBC cell lines (BT549, MB436, MB468, MDA231, MDA231-LM2, SUM159 and paclitaxel-resistant sublines)
T1 sequence (P51617 whole entry): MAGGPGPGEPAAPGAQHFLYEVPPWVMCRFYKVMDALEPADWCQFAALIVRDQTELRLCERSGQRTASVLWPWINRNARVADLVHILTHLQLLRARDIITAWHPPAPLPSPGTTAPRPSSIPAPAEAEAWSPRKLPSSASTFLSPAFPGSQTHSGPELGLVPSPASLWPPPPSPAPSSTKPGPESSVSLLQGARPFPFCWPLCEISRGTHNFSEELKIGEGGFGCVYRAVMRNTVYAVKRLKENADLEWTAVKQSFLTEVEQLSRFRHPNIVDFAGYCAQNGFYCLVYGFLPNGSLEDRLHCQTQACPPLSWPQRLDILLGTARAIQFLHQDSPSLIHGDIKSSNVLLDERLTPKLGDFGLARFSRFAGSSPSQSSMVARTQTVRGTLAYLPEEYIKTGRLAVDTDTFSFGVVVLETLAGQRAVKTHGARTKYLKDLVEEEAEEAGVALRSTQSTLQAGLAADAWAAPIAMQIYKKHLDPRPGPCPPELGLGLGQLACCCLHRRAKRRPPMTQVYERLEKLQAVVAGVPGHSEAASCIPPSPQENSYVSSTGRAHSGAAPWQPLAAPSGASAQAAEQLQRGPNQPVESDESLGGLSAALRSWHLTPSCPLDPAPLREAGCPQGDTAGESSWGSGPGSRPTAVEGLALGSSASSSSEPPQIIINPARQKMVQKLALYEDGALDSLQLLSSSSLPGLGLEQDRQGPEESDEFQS
Briefly: Western blot of p-IRAK1 in immunoprecipitated IRAK1. The format is cell-based. As to conditions: for induction of p-IRAK1 by chemotherapeutic agent: MDA231 (also SUM159) cells, PTX 5 nM, ADR 2 μM, Cisplatin 5 μM, up to 48 hours. On the procedure: as §1
Co-IP was performed as described previously (9). The whole cell lysate were extracted with the NE-PER kit (Pierce Biotechnology) and subjected to immunoprecipitation using 2 μg total-IRAK1 antibody (Santa Cruz Biotech, Santa Cruz, Calif., Cat no.: sc-7883). The precipitated protein complex was captured using protein A-Agarose beads (Roche) and extensively washed with the washing buffer (50 mM Tris-HCl, 150 mM NaCl, 0.1% triton). The precipitated proteins were dissolved in SDS sample buffer along with 3 mM DTT, and subjected to immunoblotting analysis. Phospho-IRAK1 (T209) (Assay Biotechnology, Sunnyvale, Calif., Cat no.: A1074) was used for detection.

Assay [6] has as its system non-cancerous MCF10A and HMLE cells. Nature of the assay: 3D Matrigel growth of non-cancerous cells. The format is cell-based. The note with it: 5 uM IRAK-inh, one week.
Assay [7] relates to BT549, MB436, MB468, MDA231 and MDA231-LM2 cells. Nature of the assay: 3D Matrigel growth of TNBC cells. The assay is classed as cell-based. As to conditions: 5 μM IRAK-inh. As to the method:
8-well chamber slides (Falcon, cat: 354656, Falcon) were precoated with 7.6 mg/mL growth factor-reduced Matrigel (Falcon, cat: 354230, Falcon) for 30 min at 37° C. Approximately 5×10^3 for MDA231, 1×10^4 for MB436 and MB468, 1.5×10^4 cells for BT549 with indicated treatments were seeded in each well with DMEM containing 10% (vol/vol) FBS and 150 μg/mL Matrigel. Medium were replenished every 3 days and cell growth was monitored every 3 days by imaging over duration of 10-14 days.

Assay [8] concerns the target IRAK1 (Homo sapiens, UniProt P51617). The note with it: recently shown in Myelodysplastic Syndrome (ref 20); cited from earlier work.
The subject of assay [9] is SUM159-PR and MDA231-PR cells. Briefly: Apoptosis by FACS analysis of Sub-G1 cells. The format is cell-based. The note with it: Paclitaxel-resistant cells. As to the method: Cell cycle analysis was done by DNA content quantification to quantify the sub-G1 population which is reflective of the extent of cell death. Briefly, the cells were fixed with 70% ethanol and stained with propidium iodide (50 μg/ml) staining. The stained cells were analyzed by FACScalibur (BD Bioscience) and quantified by using CellQuest software (BD bioscience).

Assay [10] has as its system MDA231 and SUM159 parental and Paclitaxel-resistant sublines (PR). Nature of the assay: Cell viability of parental and Paclitaxel-resistant sublines, combination treatment. The assay is classed as cell-based. On the procedure:
(§2) For cell proliferation assay, the optimal cell seeding was first determined empirically for all cell lines by examining the growth of a wide range of seeding densities in a 96-well format to identify conditions that permitted proliferation for 7 days. Cells were then plated at the optimal seeding density 24 h before siRNA or drug treatment in triplicate. Plates were incubated for 7 days at 37° C. in 5% CO2. Cells were then lysed with CellTiter-Glo (CTG) (Promega, Madison, Wis.) and chemiluminescent signal was detected with a microplate reader on Day 0, 1, 3, 5 and 7. In addition, an untreated plate of cells was harvested at the time of drug or siRNA addition (T0) to quantify the starting number of cells. CTG values obtained after the 7 day treatment were expressed as percentages of the T0 value and plotted against time of treatment.

Assay [11] has as its system MDA231-PR cells. Briefly: Cell viability IC50 curves, sensitivity of paclitaxel-resistant cells to agents. The format is cell-based.
Source text: FIG. 17. (a). IC50 curves showing cell viability after treatment with paclitaxel (PTX), vincristine (VCR), gemcitabine, doxorubicin (ADR), cisplatin, 5-fluorouracil (5-FU) and pacritinib in parental and pacitaxel-treated MDA-MB-231 (MDA231-PR) cells. (b). Graphical representation of relative sensitivities. (c).
as §2

Assay [12] concerns IL1B, IL6 and IL8 mRNAs in MDA231 cells. Briefly: qRT-PCR of cytokine mRNAs after chemotherapy. The note with it: 5 nM PTX, VCR 3 days. The format is cell-based. On the procedure:
Total RNA was isolated by using Qiazol (Life technologies, Carlsbad, Calif.) and purified with the RNeasy Mini Kit (Qiagen, Valencia, Calif.). Reverse transcription and quantitative PCR assays were performed using High Capacity cDNA Archive kit and KAPA SyBr Fast qPCR kit (KAPA Biosystems, Wilmington, Mass.). For quantification of mRNA levels, 18S level was used as an internal control. All reactions were analyzed in an Applied Biosystems PRISM 7500 Fast Real-Time PCR system in 96-well plate format.
For orientation: Quantitative PCR measures a nucleic acid by following its amplification.

Assay [13] deals with SUM159PR or MDA231PR. Briefly: Acquired Paclitaxel resistance of stepwise-selected resistant sublines. The assay is classed as cell-based. As to conditions: SUM159PR kept in 1 μM, MDA231PR in 75 nM Paclitaxel. On the procedure:
(§3) To establish the Paclitaxel acquired resistant TNBC cell lines, both SUM159PT and MDA231 cells were used. […] During these treatment cycles, only cells with a high intrinsic resistance or those which had acquired resistance to the drug survived. The cycle was further repeated until the stable resistant cell line (SUM159PR or MDA231PR) SUM159PR cells were stably maintained in 1 μM Paclitaxel and MDA231 in 75 nM of Paclitaxel with complete medium, making them at least ˜1000-fold more resistant than their parental cell lines.

Assay [14] deals with ALDH-positive cell population. Nature of the assay: ALDEFLUOR assay. The format is cell-based. As to conditions: after paclitaxel treatment. As to the method:
ALLEFLUOR assay was performed using the manufacturer's recommended protocol (ALDEFLUOR kit, Stemcell Technologies; catalogue number: #01700). In brief, one million single-cell suspensions were centrifuged and resuspended in ALDEFLUOR assay buffer supplied in the kit. Each sample cells were incubated with or without an ALDH-specific inhibitor 15 mM diethylaminobenzaldehyde in the presence of 0.15 mM ALDH substrate. ALDEFLUOR stainings were detected using fluorescein isothiocyanate channel of a FACSCalibur Flow Cytometry System (BD Biosciences) after 25 min incubation at 37° C. Diethylaminobenzaldehyde inhibitor control sample was used as sorting gate reflecting background fluorescence levels for each cell lines.

For assay [15], the system named is SUM159PT. Briefly: Paclitaxel EC50 in parental SUM159PT cells. The note with it: Homo sapiens, SUM-159-PT, read-out: intrinsic EC50 to Paclitaxel. The assay is classed as cell-based. As to the method:
as §3, §2

pEC50: −log10 of the molar value. “Also recorded” adds a separate entry of the source.

Sequence of IRAK1 (P51617 whole entry, species assumed): as the sequence (P51617 whole entry) above

With `O=C(Nc1nc2ccccc2n1CCN1CCOCC1)c1cccc([N+](=O)[O-])c1` [IRAK-inh], the mammosphere growth result was “marked inhibition” in assay [1] (BT549, MB436 and MB468 cells); “impaired” in assay [1] (MDA231-LM2 cells, 7 days). Also, the “IL-8 and CXCL1 secretion” value in assay [2] (IRAK-inh-sensitive TNBC cells, 5 μM IRAK-inh) is reported as “strong reduction”. In addition, the “secretion of IL-6, IL-8 and CXCL1” value in assay [2] (Paclitaxel-resistant cells, IRAK1-inh plus Paclitaxel) is reported as “reduced secretion”. Moreover, the PARP cleavage result in [3] is “increased PARP cleavage”. Moreover, the “p-p38 and MCL-1 expression” value in assay [3] was “decrease”. In addition, the lung metastasis entry in assay [4] (listed as IRAK1-inh) was “markedly reduced”; in assay [4] (listed as IRAK1-inn), “effectively blocked”. In addition, the “survival of mice carrying TNBC metastasis” value in assay [4] (IRAK-inh treatment) was “extended the survival”. Also, in assay [5] (IRAK-inh 5 μM), the “p-IRAK1 in TNBC cells” value is “effectively abolished the p-IRAK1”. In addition, in assay [5] (MB436 cells, recombinant IL-1β, IRAK-inh 5 uM), the “IL-1β-induced p-IRAK1” value is “abrogated”. Besides, in assay [6], the “3D Matrigel growth / morphology” value is on record as “no effect”. Moreover, the “3D Matrigel growth” value in assay [7] (BT549, MB436 and MB468 cells) is reported as “marked inhibition”; in assay [7] (MDA231-LM2 cells, 7 days), “impaired”. In addition, the “activity against IRAK1” value in assay [8] is on record as “potent activity against IRAK1”. For the same compound, the “apoptosis, combined with Paclitaxel” value in assay [9] was “massive apoptosis”. Further, the “cell viability, combined with sub-toxic Paclitaxel” value in assay [10] (both Paclitaxel-resistant cell lines (MDA231-PR, SUM159-PR), 5 μM IRAK-inh) is “dramatic loss of cell viability”. For the same compound, in [10] (paclitaxel-resistant MDA231 cells, IRAK-inh 5 μM), the “cell death in combination with paclitaxel” value is reported as “dramatic cell death”. For the same compound, the “cell viability, inhibitor on its own” value in [10] (paclitaxel-resistant MDA231 cells, IRAK-inh 5 μM alone) is reported as “no effect”.

As for `CC(=O)O[C@H]1C(=O)[C@@]2(C)[C@H]([C@H](OC(=O)c3ccccc3)[C@]3(O)C[C@H](OC(=O)[C@H](O)[C@@H](NC(=O)c4ccccc4)c4ccccc4)C(C)=C1C3(C)C)[C@]1(OC(C)=O)CO[C@@H]1C[C@@H]2O` [Paclitaxel], the entries for the “mammosphere forming capacity after Paclitaxel pretreatment” value in [1] and in assay [1] (listed as paclitaxel) were “increased mammosphere forming capacity” and “potentiated mammosphere formation”, respectively. The “shift of the IC50 curve” value in assay [11] (MDA231-PR versus parental MDA-MB-231) is “marked right shift”. The “sensitivity of paclitaxel-resistant cells to agent” value in assay [11] (paclitaxel-treated/resistant cells over-expressing p-IRAK1) was “markedly resistant; also recorded: no longer susceptible; also recorded: no longer responsive”. Also, the “induction of p-IRAK1 by chemotherapeutic agent” value in assay [5] and in [5] (listed as paclitaxel) was “marked induction” in each case. In addition, the “IRAK1 signaling activated by chemotherapeutic agents” value in [5] (discussion statement) was “activated”. Further, the “expression of IL1B, IL6 and IL8 mRNAs” value in [12] was “induced”. The “fold more resistant than parental cell lines” value in assay [13] is listed as at least 1000 fold. Further, the ALDH-positive cell population entry in [14] is on record as “expansion of the ALDH-positive cell population”. The pEC50 in assay [15] is 8.41.
